Measurements reported in patent US12023323B2, “Carbohydrate-binding small molecules with antiviral activity” (priority 2018, dated 2024).
Entries after “also recorded” stand apart in the source; their conditions may differ. Structures can show the parent of a compound that is named as a salt. Where two headings read alike, the source gives them in different places.

Experiments:
[1] = system: ZIKV GFP RVPs; assay: microbe, parasite or virus in culture; settings: Zika virus, Vero
[2] = system: ZIKV RVPs; assay: microbe, parasite or virus in culture; assay type: cell-based, Zika virus; settings: for IC50: Zika virus, HeLa
[3] = Selectivity across the five octyloxy pyranosides from NMR titrations; assay type: binding; settings: for binding profile across the glycans in words / glycan preference in words: five octyloxy pyranosides, CD2Cl2, 298 K
[4] = 1H NMR titration with octyloxy pyranoside α-Man; assay type: binding; parameters: key to Ka (M^−1) with α-Man: No detectable binding; settings: for Ka (M^−1) with α-Man: NMR titrations in CD2Cl2 at 298 K; for affinity for α-Man relative to SCR001: fold / ratio SCR:SCR001
[5] = 1H NMR titration with octyloxy pyranoside β-Man; assay type: binding; parameters: key to Ka (M^−1) with β-Man: No detectable binding; settings: for Ka (M^−1) with β-Man: NMR titrations in CD2Cl2 at 298 K
[6] = system: ZIKV GFP RVPs
[7] = system: Vero cells; assay: Cellular toxicity, CellTiter-Glo, Vero cells; settings: for CC50: read-out: TC50, Table 1, 72 h, CellTiter-Glo
[8] = system: HeLa cells; assay: Cellular toxicity, CellTiter-Glo, HeLa cells; settings: read-out: TC50, Table 2, 72 h
[9] = 1H NMR titration with octyloxy pyranoside β-Glc; assay type: binding
[10] = Cellular toxicity, CellTiter-Glo, Vero cells; settings: African green monkey
[11] = 1H NMR titration with octyloxy pyranoside α-Glc; assay type: binding; settings: NMR titrations
[12] = system: HIV-1; settings: cell culture; cited from earlier work
[13] = Table 1, Vero cells, compounds 30 min before ZIKV RVPs, GFP+ cells 72 h postinfection
[14] = Table 3, Vero cells, ZIKV RVPs, average of at least two independent measurements
[15] = read-out: IC50 (strong antiviral activity), Vero cells, ZIKV RVPs

SMILES | IC50 [1, 13] [µM] | binding profile across the glycans in words [3] | glycan preference in words [3] | Ka (M^−1) with α-Man ([4]; 1:1 binding) [M⁻¹] | Ka (M^−1) with β-Man ([5]; 1:1 binding) [M⁻¹] | anti-ZIKV activity in words ([6]; Vero cells, ZIKV RVPs) | CC50 [7] [µM] | CC50 [8] [µM] | therapeutic index (TC50/IC50) ([6]; Table 3, Vero cells) | IC50 [1, 14] [µM] | CC50 at 72 h [10] [µM] | other results
NCc1cc(CN)cc(-c2cc(CN)cc(CN)c2)c1 [Compound 2, [1,1′-biphenyl]-3,3′,5,5′-tetrayltetramethanamine tetrahydrochloride] | > 100 | – | – | – | – | – | – | – | – | – | – | –
c1coc(CNCc2cc(CNCc3ccco3)cc(-c3cc(CNCc4ccco4)cc(CNCc4ccco4)c3)c2)c1 [SCR002, 1,1′,1″,1′″-([1,1′-biphenyl]-3,3′,5,5′-tetrayl)tetrakis(N-(furan-2-ylmethyl)methanamine)] | 1.13 ± 0.23 | measurable binding with only β-Glc, β-Man and α-Man; also recorded: binds only β-Glc, β-Man, and α-Man | preference for α-Man; also recorded: selective for α-Man | 1400 | 54 | less potent | 5.43 | 2.51 | – | – | – | anti-ZIKV activity in words ([2]; HeLa cells, ZIKV RVPs): more potent than SCR001; IC50 [2]: 0.35 ± 0.09 µM
c1csc(CNCc2cc(CNCc3cccs3)cc(-c3cc(CNCc4cccs4)cc(CNCc4cccs4)c3)c2)c1 [SCR003, 1,1′,1″,1′″-([1,1′-biphenyl]-3,3′,5,5′-tetrayl)tetrakis(N-(thiophen-2-ylmethyl)methanamine)] | 1.31 | only had measurable binding with β-Glc, and α-Man; also recorded: binds only β-Glc and α-Man | preference for α-Man; also recorded: selective for α-Man | – | < 30 | less potent | 4.12 | 2.47 | – | – | – | IC50 [2]: 0.56 ± 0.08 µM; Ka (M^−1) with α-Man [4]: c; Ka (M^−1) with β-Man [5]: c
O=C(NCc1cc(CNC(=O)c2cccs2)cc(-c2cc(CNC(=O)c3cccs3)cc(CNC(=O)c3cccs3)c2)c1)c1cccs1 [SCR008, N,N,N′,N″-([1,1′-biphenyl]-3,3′,5,5′-tetrayltetrakis(methylene))tetrakis(thiophene-2-carboxamide)] | – | – | – | – | – | – | – | – | – | – | – | IC50 [6]: > 100 µM; anti-ZIKV activity in words [6]: not effective
c1c[nH]c(CNCc2cc(CNCc3ccc[nH]3)cc(-c3cc(CNCc4ccc[nH]4)cc(Cn4cc(COCCOCCOCCOCc5cn(Cc6cc(CNCc7ccc[nH]7)cc(-c7cc(CNCc8ccc[nH]8)cc(CNCc8ccc[nH]8)c7)c6)nn5)nn4)c3)c2)c1 [SCR012] | – | promiscuous; also recorded: bind all five glycans | – | 2600 | 1700 | – | 36.2 | 2.48 | – | – | – | –
c1cc(CNCc2cc(CNCc3cc[nH]c3)cc(-c3cc(CNCc4cc[nH]c4)cc(CNCc4cc[nH]c4)c3)c2)c[nH]1 [SCR017, 1,1′,1″,1′″-([1,1′-biphenyl]-3,3′,5,5′-tetrayl)tetrakis(N-((1H-pyrrol-3-yl)methyl)methanamine)] | – | – | prefers β-Glc; also recorded: specific for β-Glc | – | – | potent anti-ZIKV activity | – | – | 66 | 4.8 ± 0.4 | 316 ± 18 | K2 (1:2 SCR·glycan association constant) with β-Glc ([9]; 1:2 SCR·glycan complexes): 6800 M⁻¹; cumulative association constant β with β-Glc ([9]; 1:2 SCR·glycan complexes): 8.4×10^1 M^−2; cumulative association constant β with β-Glc ([9]; 1:2 SCR·glycan, unit M^2): 8.4×10^1 M^2; K1 (1:1 association constant) with β-Glc ([9]; CD2Cl2, 298 K): 1.2 M⁻¹; affinity for β-Glc relative to SCR001 ([9]; fold / ratio SCR:SCR001): 7; IC50 relative to regioisomer ([6]; SCR023 vs SCR022, SCR017 vs SCR001): four times higher; IC50 ([1]; Table 3 study, Vero cells, ZIKV RVPs, unit μm [sic]): < 5 µM; IC50 [1, 15]: < 5 µM
c1ccc2[nH]c(CNCc3cc(CNCc4cc5ccccc5[nH]4)cc(-c4cc(CNCc5cc6ccccc6[nH]5)cc(CNCc5cc6ccccc6[nH]5)c4)c3)cc2c1 [SCR018, 1,1′,1″,1′″-([1,1′-biphenyl]-3,3′,5,5′-tetrayl)tetrakis(N-((1H-indol-2-yl)methyl)methanamine)] | – | – | uniquely bind α-Man; also recorded: specific for α-Man | 11000 | – | weaker inhibition | – | – | 2 | – | 29.8 ± 5 | binding to β-Glc in words ([9]; NMR peak shifting upon mixing): no substantial binding; fold selectivity for α-Man, SCR019 compared to SCR018 ([4]; 2-indole vs 3-indole): 36; affinity for α-Man relative to SCR001 [4]: 10
c1ccc2c(CNCc3cc(CNCc4c[nH]c5ccccc45)cc(-c4cc(CNCc5c[nH]c6ccccc56)cc(CNCc5c[nH]c6ccccc56)c4)c3)c[nH]c2c1 [SCR019, 1,1′,1″,1′″-([1,1′-biphenyl]-3,3′,5,5′-tetrayl)tetrakis(N-((1H-indol-3-yl)methyl)methanamine)] | – | – | prefers β-Man; also recorded: selective for Mannosides with a preference for the β-anomer | 290 | – | – | – | – | 153 | 0.26 | 39.8 ± 1.7 | affinity for β-Man over α-Man ([3]; fold): 250; cumulative association constant β=K1×K2 with β-Man ([5]; 1:2 SCR·glycan binding model): 7.4×10^4 M^−2; cumulative association constant β with β-Man ([5]; 1:2 SCR·glycan, unit M^2): 7.4×10^4 M^2; K1 (1:1 association constant) with β-Man ([5]; CD2Cl2, 298 K): 2.3 M⁻¹; K2 (1:2 SCR·glycan association constant) with β-Man ([5]; CD2Cl2, 298 K, 1:2 SCR·glycan binding model): 32000 M⁻¹; affinity for β-Man relative to SCR001 ([5]; SCR019:SCR001): 2; binding to α-Glc in words [11]: no substantial binding; IC50 [1, 15]: < 5 µM; cellular toxicity in words [7]: minimal cellular toxicity; also recorded: low off-site toxicity
c1ccc(CNCc2cc(CNCc3ccccn3)cc(-c3cc(CNCc4ccccn4)cc(CNCc4ccccn4)c3)c2)nc1 [SCR020, 1,1′,1″,1′″-([1,1′-biphenyl]-3,3′,5,5′-tetrayl)tetrakis(N-(pyridin-2-ylmethyl)methanamine)] | – | – | uniquely bind α-Man; also recorded: specific for α-Man | – | – | weaker inhibition | – | – | 9 | < 20 | 178 ± 99 | K2 (1:2 SCR·glycan association constant) with α-Man ([4]; 1:2 SCR·glycan binding model): 11 M⁻¹; cumulative association constant β with α-Man ([4]; 1:2 SCR·glycan binding model): 2.8×10^5 M^−2; cumulative association constant β with α-Man ([4]; 1:2 SCR·glycan, unit M^2): 2.8×10^5 M^2; K1 (1:1 association constant) with α-Man ([4]; CD2Cl2, 298 K): 260 M⁻¹; affinity for α-Man relative to SCR001 [4]: 200; change in affinity for α-Man, SCR020 and SCR021 ([4]; times): 570; IC50 [6, 14]: 19.9 ± 14.4 µM
COc1cc(O)c2c(c1)C(=O)c1c(cc3c(c1O)-c1c(cc(C)c(C(=O)N[C@H](C)C(=O)O)c1O)[C@H](O[C@@H]1O[C@H](C)[C@H](O)[C@H](O[C@@H]4OC[C@@H](O)[C@H](O)[C@H]4O)[C@H]1O)[C@H]3O)C2=O [benanomicin A] | – | – | – | – | – | – | – | – | – | – | – | 50% effective concentration against HIV-1 [12]: micromolar concentration range
